Assays:
[1] = system: Haemonchus contortus; experiment: In vivo nematode test, Haemonchus contortus / sheep (faecal worm egg count before and after treatment); design: species or system Schaf; conditions: experimentally infected sheep, treated after prepatency, pure active in gelatin capsules, oral, dose giving complete cessation of egg excretion, read-out: Dosis effectiva
Source text: Haemonchus contortus / Schaf
Experimentell mit Haemonchus contortus infizierte Schafe wurden nach Ablauf der Präpatenzzeit des Parasiten behandelt. Die Wirkstoffe wurden als reiner Wirkstoff in Gelatinekapseln oral appliziert.
(§1) Der Wirkungsgrad wird dadurch bestimmt, daß man die mit dem Kot ausgeschiedenen Wurmeier vor und nach der Behandlung quantitativ auszählt.
Ein völliges Sistieren der Eiausscheidung nach der Behandlung bedeutet, daß die Wärmer abgetrieben wurden oder so geschädigt sind, daß sie keine Eier mehr produzieren (Dosis effectiva).
(§2) Geprüfte Wirkstoffe und wirksame Dosierungen (Dosis effectiva) sind aus der nachfolgenden Tabelle ersichtlich.

[2] = system: Trichostrongylus colubriformis; experiment: In vivo nematode test, Trichostrongylus colubriformis / sheep (faecal worm egg count before and after treatment); design: species or system Schaf; conditions: experimentally infected sheep, treated after prepatency, pure active in gelatin capsules, oral, dose giving complete cessation of egg excretion, read-out: Dosis effectiva
Source text: Trichostrongylus colubriformis / Schaf
Experimentell mit Trichostrongylus colubriformis infizierte Schafe wurden nach Ablauf der Präpatenzzeit des Parasiten behandelt. Die Wirkstoffe wurden als reiner Wirkstoff in Gelatinekapseln oral appliziert.
as §1
Ein völliges Sistieren der Eiausscheidung nach der Behandlung bedeutet, daß die Würmer abgetrieben wurden oder so geschädigt sind, daß sie keine Eier mehr produzieren (Dosis effectiva).
as §2

| Structure (SMILES) | minimal effective dose [1] | minimal effective dose [2] |
| --- | --- | --- |
| COc1ccc(-c2cc(NCCc3ccccc3)no2)cc1 [Beispiel 13] | 10 mg/kg |  |
| CCNc1cc(-c2cccnc2)on1 [Beispiel 57] | 10 mg/kg | 10 mg/kg |
| Brc1ccc(-c2cc(NC3CCCCC3)no2)cc1 [Beispiel 43] | 10 mg/kg |  |
| CCNc1cc(-c2ccc(SC(F)(F)F)cc2)on1 [Beispiel 22] | 10 mg/kg | 10 mg/kg |
| COc1ccc(-c2cc(NC3CC3)no2)cc1 [Beispiel 6] | 10 mg/kg | 10 mg/kg |
| COc1ccc(-c2cc(NCC3CC3)no2)cc1 [Beispiel 10] | 10 mg/kg | 10 mg/kg |
| CCNc1cc(-c2ccsc2)on1 [Beispiel 63] |  | 10 mg/kg |
| CCNc1cc(-c2ccc(OC)cc2)on1 [Beispiel 4, 3-Ethylamino-5-(4-methoxyphenyl)-isoxazol] | 10 mg/kg | 10 mg/kg |

From patent EP0563686A1, “Utilization of 3 substituted amino isoxazole derivatives against endoparasites, new 3 substituted amino isoxazols and process for their preparation” (BAYER AG, priority 1992, dated 1993)
